# According to ChEMBL document CHEMBL3638506, “Conjugated 3-(indolyl)- and 3-(azaindolyl)-4-arylmaleimide compounds and their use in tumor treatment” (2015):
# Biological target: Glycogen synthase kinase-3 beta (Homo sapiens, UniProt P49841)
# Assay: Kinase Assay: The effect of test compounds on the activity of the protein kinases GSK-3β, VEGFR-2 and FLT-3 was evaluated based on half maximal inhibitory concentration (IC50) values determined by Millipore UK Ltd; Gemini Crescent; Dundee Technology Park; Dundee DD2 1SW; UK (IC50Profiler). Detailed protocols can be found at: www.millipore.com/drugdiscovery/dd3/assayprotocols.
# Glycogen synthase kinase-3 beta, sequence (P49841 whole entry): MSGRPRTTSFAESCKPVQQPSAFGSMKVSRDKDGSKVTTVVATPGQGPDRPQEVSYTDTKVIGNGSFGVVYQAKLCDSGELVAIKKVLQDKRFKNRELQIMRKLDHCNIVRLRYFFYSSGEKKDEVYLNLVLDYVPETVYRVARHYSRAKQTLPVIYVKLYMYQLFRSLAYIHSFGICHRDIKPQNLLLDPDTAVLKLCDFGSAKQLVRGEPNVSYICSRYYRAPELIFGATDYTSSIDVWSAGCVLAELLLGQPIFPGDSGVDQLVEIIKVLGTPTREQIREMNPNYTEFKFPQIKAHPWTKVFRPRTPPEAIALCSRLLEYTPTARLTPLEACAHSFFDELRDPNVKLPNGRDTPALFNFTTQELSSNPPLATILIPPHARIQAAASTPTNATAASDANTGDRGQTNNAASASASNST
smiles,measurement,value
COc1cc(C2=C(c3cn(CCCO)c4ccccc34)C(=O)NC2=O)cc(OC)c1OC,IC50,3.39 µM
